In patent US12540161B2, “Linkers” (BicycleTx Limited, priority 2020, dated 2026):

Legend:
in vivo [1] = conditions: male, CD-1, mouse, plasma, intravenous
Protocol: Male CD-1 mice were dosed with each Bicycle Conjugate formulated in 25 mM histidine HCl, 10% sucrose pH 7 via tail vein injection. Serial bleeding (about 80 μL blood/time point) was performed via submadibular or saphenous vein at each time point. All blood samples were immediately transferred into prechilled microcentrifuge tubes containing 2 μL K2-EDTA (0.5M) as anti-coagulant and placed on wet ice. Blood samples were immediately processed for plasma by centrifugation at approximately 4° C., 3000 g. The precipitant including internal standard (350 μL) was immediately added into the 35 μL plasma sample, mixed well and centrifuged at 3220 g, 4° C. for 15 minutes. The supernatant was transferred into pre-labeled polypropylene microcentrifuge tubes, and then quick-frozen over dry ice. The samples were stored at 70° C. or below as needed until analysis. Supernatant samples were mixed with 50 μL water, vortexed well and centrifuged at 3220 g, 4° C. for 15 minutes. A sample of the supernatant was injected for LC-MS/MS analysis using an Acquity UPLC with AB Sciex 6500+ Triple Quad MS in positive ion mode to determine the concentrations of Bicycle Conjugate and released payload. Plasma concentration versus time data were analyzed by non-compartmental approaches using the Phoenix WinNonlin 6.3 software program. C0, Cl, Vdss, T1/2, AUC(0-inf), MRT(0-last), MRT(0-inf) nd graphs of plasma concentration versus time profile were reported.

Cathepsin B = Cathepsin B (Homo sapiens, UniProt P07858); assay: Cathepsin B (CatB) cleavage assay; assay type: biochemical; conditions: BTCs
in vivo [2] = conditions: rat, plasma
[3] = rat

Q: With `CC[C@H](C)[C@@H]([C@@H](CC(=O)N1CCC[C@H]1[C@H](OC)[C@@H](C)C(=O)N[C@H](C)[C@@H](O)c1ccccc1)OC)N(C)C(=O)[C@@H](NC(=O)[C@H](C(C)C)N(C)C(=O)OCc1ccc(NC(=O)[C@H](CCCNC(N)=O)NC(=O)[C@H](Cc2cccc3ccccc23)NC(=O)[C@H](CCC(=O)O)NC(=O)Cn2cc(CCC(=O)NCCC(=O)N(C)CC(=O)N(C)CC(=O)N(C)CC(=O)N(C)CC(=O)N(C)CC(=O)N(C)CC(=O)N(C)CC(=O)N(C)CC(=O)N(C)CC(=O)N(C)CC(=O)N[C@@H](C)C(=O)N[C@H]3CN(C)Cc4cc5cc(c4)CN(C)C[C@@H](C(N)=O)NC(=O)[C@H](C(C)(C)C)NC(=O)[C@H](CC(=O)O)NC(=O)[C@H](Cc4ccc(O)cc4)NC(=O)[C@H](Cc4ccccc4)NC(=O)[C@H](CC(=O)O)NC(=O)[C@H](CCC(=O)O)NC(=O)[C@H](CSC5)NC(=O)[C@@H](C)NC(=O)[C@H](Cc4cccc5ccccc45)NC(=O)[C@H](CCC(=O)O)NC(=O)[C@H](CC(N)=O)NC(=O)[C@@H](C)NC3=O)nn2)cc1)C(C)C` [BCY10984, MMAE-PAB-(Cit-1Nal-Glu)-BCY3900] as the compound, how does the C0 (in vivo [1]) read?
A: 112 µg/mL

Q: What about the Vd (in vivo [1]) of the same compound?
A: 0.09 L/kg

Q: What about the clearance (in vivo [1]) of the same compound?
A: 0.2 mL/min/kg

Q: What about the half-life (in vivo [1]) of the same compound?
A: 7.55 h

Q: What about the “% Parent remaining after incubation with CatB, 0 h” value (Cathepsin B; 0 h) of the same compound?
A: 100%

Q: What about the “% Parent remaining after incubation with CatB, 1 h” value (Cathepsin B; 1 h) of the same compound?
A: 94.498%

Q: And the “% Parent remaining after incubation with CatB, 2 h” value (Cathepsin B; 2 h)?
A: 83.5%

Q: What about the “% Parent remaining after incubation with CatB, 4 h” value (Cathepsin B; 4 h) of the same compound?
A: 39.2%

Q: What about the “% Parent remaining after incubation with CatB, 6 h” value (Cathepsin B; 6 h) of the same compound?
A: 33.4%

Q: What about the “% Parent remaining after incubation with CatB, 24 h” value (Cathepsin B; 24 h) of the same compound?
A: 32.5%

Q: And the half-life at 40 μM (Cathepsin B; read-out: CatB t1/2 (converted))?
A: 3.3 h

Q: What about the half-life (in vivo [2]) of the same compound?
A: 1.83 h

Q: What about the AUC ratio [3] of the same compound?
A: 0.0000936
